Experimental data as given in patent US8269000B2, “Substituted pyrimidine and triazine compounds” (Gruenenthal GmbH, priority 2008, dated 2012).

target: T1, rat B1R (Rattus norvegicus, UniProt P97583); assay: FLIPR Ca2+ functional study on bradykinin receptor 1 (rB1R CHO K1 cells); assay type: cell-based; settings: % inhibition rat B1R at 10 μM
T1 construct: expressed in transfected cells; host or cells: CHO K1 cells
T1 sequence (P97583 1-337): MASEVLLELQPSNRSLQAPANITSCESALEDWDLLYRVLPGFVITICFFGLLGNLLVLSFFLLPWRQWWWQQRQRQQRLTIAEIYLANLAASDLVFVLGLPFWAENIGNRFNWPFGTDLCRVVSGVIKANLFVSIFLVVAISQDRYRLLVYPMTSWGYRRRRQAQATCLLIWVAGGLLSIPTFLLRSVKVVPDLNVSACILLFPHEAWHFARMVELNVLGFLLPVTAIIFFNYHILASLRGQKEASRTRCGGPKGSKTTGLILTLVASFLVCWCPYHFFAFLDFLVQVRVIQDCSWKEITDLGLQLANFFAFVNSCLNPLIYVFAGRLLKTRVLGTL
Procedure: The agonistic or antagonistic activity of substances can be quantified on the bradykinin receptor 1 (B1R) of the species human and rat using ectopically expressing cell lines (CHO K1 cells) and with the aid of a Ca^2+-sensitive dye (Fluo-4) using a fluorescent imaging plate reader (FLIPR). The indication in % activation is based on the Ca^2+ signal after addition of Lys-Des-Arg^9-bradykinin (0.5 nM) or Des-Arg^9-bradykinin (100 nM). Antagonists lead to suppression of the Ca^2+ influx after the addition of the agonist. % Inhibition compared with the maximum achievable inhibition is indicated.
The agonistic or antagonistic activity of substances can be determined on the bradykinin receptor 1 (B1R) of the species human and rat using the following assay. According to this assay, the Ca^2+ influx through the channel is quantified with the aid of a Ca^2+-sensitive dye (Fluo-4 type, Molecular Probes Europe BV, Leiden, Netherlands) using a Fluorescent Imaging Plate Reader (FLIPR, Molecular Devices, Sunnyvale, USA).
Chinese hamster ovary cells (CHO K1 cells) which have been stably transfected with the human B1R gene (hB1R cells) or with the B1R gene of the rat (rB1R cells) are used. For functional studies, the cells are plated out on black 96-well plates having a clear base (BD Biosciences, Heidelberg, Germany or Greiner, Frickenhausen, Germany) in a density of 20,000-35,000 cells/well. The cells are left overnight at 37° C. and with 5% CO2 in culture medium (hB1R cells: Nutrient Mixture Ham's F12, Gibco Invitrogen GmbH, Karlsruhe, Germany or DMEM, Sigma-Aldrich, Taufkirchen, Germany; rB1R cells: D-MEM/F12, Gibco Invitrogen GmbH, Karlsruhe, Germany), with 10 vol.% FBS (fetal bovine serum, Gibco Invitrogen GmbH, Karlsruhe, Germany or PAN Biotech GmbH, Aidenbach, Germany). On the following day, the cells are loaded for 60 minutes at 37° C. with 2.13 μM Fluo-4 (Molecular Probes Europe BV, Leiden, Netherlands) in HBSS buffer (Hank's buffered saline solution, Gibco Invitrogen GmbH, Karlsruhe, Germany) […] (Sigma-Aldrich, Taufkirchen, Germany) and 10 mM HEPES (Sigma-Aldrich, Taufkirchen, Germany). The plates are then washed twice with HBSS buffer, and HBSS buffer additionally containing 0.1% BSA (bovine serum albumin; Sigma-Aldrich, Taufkirchen, Germany), 5.6 mM glucose and 0.05% gelatin (Merck KGaA, Darmstadt, Germany) is added to the plates. After incubation for a further 20 minutes at room temperature, the plates are inserted into the FLIPR for Ca^2+ measurement. Alternatively, washing is carried out with buffer A (15 mM HEPES, 80 mM NaCl, 5 mM KCl, 1.2 mM CaCl2, 0.7 mM MgSO4, 2 g/l glucose, 2.5 mM probenecid) followed by loading with buffer A with added 2.5 μM Fluo-4 and 0.025% Pluronic F127 (Sigma-Aldrich, Taufkirchen, Germany). The cells are then washed twice with buffer A and incubated for 30 minutes at room temperature with buffer A additionally containing 0.05% BSA and 0.05% gelatin and are then inserted into the FLIPR for Ca^2+ measurement. The Ca^2+-dependent fluorescence is measured before and after the addition of substances (λex=488 nm, λem=540 nm). Quantification is carried out by measuring the highest fluorescence intensity (FC, fluorescence counts) over time.
The FLIPR protocol consists of two substance additions. Test substances (10 μM) are first pipetted onto the cells and the Ca^2+ influx is compared with the control (hB1R: Lys-Des-Arg^9-bradykinin>=50 nM; rB1R: Des-Arg^9-bradykinin 10 μM). This gives the activation in %, based on the Ca^2+ signal after addition of Lys-Des-Arg^9-bradykinin (>=50 nM) or Des-Arg^9-bradykinin (10 μM). After 10-20 minutes' incubation, Lys-Des-Arg^9-bradykinin (hB1R) or Des-Arg^9-bradykinin (rB1R) is applied in the concentration of the EC80, and the influx of Ca^2+ is likewise determined. Antagonists lead to suppression of the Ca^2+ influx. The % inhibition compared with the maximum achievable inhibition is calculated. […]

Compound	% inh. (rat B1R) 10 μM
COc1cc(C)c(S(=O)(=O)N2CCC[C@H]2COc2ccnc(N3CCN(C4CCN(C)CC4)CC3)n2)c(C)c1 [H_CC-025, 4-[[(2S)-1-(4-methoxy-2,6-dimethylphenyl)sulfonyl-2-pyrrlidinyl]methoxy]-2-[4-(1-methyl-4-piperidinyl)-1-piperazinyl]pyrimidine]	65%
COc1cc(C)c(S(=O)(=O)N(C)CCOc2nccc(N3CCN(CC4CCN(C)CC4)CC3)n2)c(C)c1 [G_CC-007, 4-methoxy-N,2,6-trimethyl-N-[2-[[4-[4-[(1-methyl-4-piperidinyl)methyl]-1-piperazin]-2-pyrimidinyl]oxy]ethyl]benzenesulfonamide]	95%

same assay, conditions: CHO-K1, % inhibition rat B1R at 10 μM, read-out: % inh. (rat B1R) 10 μM

Compound	inhibition at 10 µM
COc1cc(C)c(S(=O)(=O)N(C)CCOc2nccc(N3CCC(c4cccs4)(N(C)C)CC3)n2)c(C)c1 [G_CC-118, N-[2-[4-(4-dimethylamino-4-thiophen-2-yl-piperidin-1-yl)-pyrimidin-2-yl]oxy-ethyl]-4-methoxy-N,2,6-trimethyl-benzenesulfonic acid amide]	86%
COc1cc(C)c(S(=O)(=O)N(C)CCOc2nccc(N3CCC4(CC3)C(=O)NCN4c3ccccc3)n2)c(C)c1 [G_CC-030, 4-methoxy-N,2,6-trimethyl-N-[2-[[4-(1-oxo-4-phenyl-2,4,8-triazaspiro[4.5]decan-8-yl)-2-pyrimidinyl]oxy]ethyl]benzenesulfonamide]	79%
COc1cc(C)c(S(=O)(=O)N2CCCCC2COc2ccnc(N3CCC4(CCN(Cc5ccccc5)C4)C3)n2)c(C)c1 (stereo not shown) [H_CC-021, 3-benzyl-7-[4-[[1-(4-methoxy-2,6-dimethylphenyl)sulfonyl-2-piperidinyl]methoxy]-2-pyrimidinyl]-3,7-diazaspiro[4.4]nonane]	62%
COc1cc(C)c(S(=O)(=O)N2c3ccccc3C[C@H]2COc2nccc(N(C)CCN3CCC(c4ccccc4)(N(C)C)CC3)n2)c(C)c1 [G_CC-094, 2-(4-dimethylamino-4-phenyl-piperidin-1-yl)-ethyl-[2-[[(2S)-1-[(4-methoxy-2,6-dimethyl-phenyl)sulfonyl]-2,3-dihydro-1H-indol-2-yl]-methoxy]-pyrimidin-4-yl]-methyl-amine]	102%
CCCCC1(N(C)C)CCN(c2ccnc(OC[C@@H]3Cc4ccccc4N3S(=O)(=O)c3c(C)cc(OC)cc3C)n2)CC1 [G_CC-093, [4-butyl-1-[2-[[(2S)-1-[(4-methoxy-2,6-dimethyl-phenyl)sulfonyl]-2,3-dihydro-1H-indol-2-yl]-methoxy]-pyrimidin-4-yl]-piperidin-4-yl]-dimethyl-amine]	91%
COc1cc(C)c(S(=O)(=O)N2CCCCC2COc2nccc(N3CCC4(CC3)OCc3ccccc34)n2)c(C)c1 (stereo not shown) [G_CC-023, 1′-[2-[[1-(4-methoxy-2,6-dimethylphenyl)sulfonyl-2-piperidinyl]methoxy]-4-pyrimidinyl]spiro[1H-isobenzofuran-3,4′-piperidine]]	50%
COc1cc(C)c(S(=O)(=O)N2CCCCC2COc2nccc(N3CCC(n4c(=O)[nH]c5cc(Cl)ccc54)CC3)n2)c(C)c1 (stereo not shown) [G_CC-024, 6-chloro-3-[1-[2-[[1-(4-methoxy-2,6-dimethylphenyl)sulfonyl-2-piperidinyl]methoxy]-4-pyrimidinyl]-4-piperidinyl]-1H-benzimidazol-2-one]	73%
COc1cc(C)c(S(=O)(=O)N(C)CCOc2nccc(N3CCC(c4ccccc4)(N(C)C)CC3)n2)c(C)c1 [G_CC-117, N-[2-[4-(4-dimethylamino-4-phenyl-piperidin-1-yl)-pyrimidin-2-yl]oxy-ethyl]-4-methoxy-N,2,6-trimethyl-benzenesulfonic acid amide]	56%
COc1cc(C)c(S(=O)(=O)N2CCC[C@H]2COc2ccnc(N3CCN(c4ncccn4)CC3)n2)c(C)c1 [H_CC-011, 4-[[(2S)-1-(4-methoxy-2,6-dimethylphenyl)sulfonyl-2-pyrrolidinyl]methoxy]-2-[4-(2-pyrimidinyl)-1-piperazinyl]pyrimidine]	56%
COc1cc(C)c(S(=O)(=O)N2CCCCC2COc2nccc(N3CCC(Oc4cnccn4)CC3)n2)c(C)c1 (stereo not shown) [G_CC-079, 2-[[1-[(4-methoxy-2,6-dimethyl-phenyl)sulfonyl]-piperidin-2-yl]-methoxy]-4-(4-pyrazin-2-yloxy-piperidin-1-yl)-pyrimidine]	98%
COc1cc(C)c(S(=O)(=O)N(C)C(COc2nccc(N3CCC4(CCN(Cc5ccccc5)C4)C3)n2)c2ccccc2)c(C)c1 (stereo not shown) [G_CC-068, N-[2-[[4-(3-benzyl-3,7-diazaspiro[4.4]nonan-7-yl)-2-pyrimidinyl]oxy]-1-phenylethyl]-4-methoxy-N,2,6-trimethylbenzenesulfonamide]	68%
COc1cc(C)c(S(=O)(=O)N2CCCCC2COc2nccc(N3CCC(Oc4ccccn4)CC3)n2)c(C)c1 (stereo not shown) [G_CC-078, 2-[[1-[(4-methoxy-2,6-dimethyl-phenyl)sulfonyl]-piperidin-2-yl]-methoxy]-4-(4-pyridin-2-yloxy-piperidin-1-yl)-pyrimidine]	98%
COc1cc(C)c(S(=O)(=O)N(C)CCOc2nccc(N3CCC4(CC3)CCN(c3ccc(F)cc3)C4=O)n2)c(C)c1 [G_CC-042, N-[2-[[4-[3-(4-fluorophenyl)-4-oxo-3,8-diazaspiro[4.5]decan-8-yl]-2-pyrimidinyl]oxy]ethyl]-4-methoxy-N,2,6-trimethylbenzenesulfonamide]	87%
COc1cc(C)c(S(=O)(=O)N2CCCC(Oc3ccnc(N(C)CCN4CCC(c5ccccc5)(N(C)C)CC4)n3)C2)c(C)c1 (stereo not shown) [H_CC-065, 2-(4-dimethylamino-4-phenyl-piperidin-1-yl)-ethyl-[4-[1-[(4-methoxy-2,6-dimethyl-phenyl)sulfonyl]-piperidin-3-yl]oxy-pyrimidin-2-yl]-methyl-amine]	52%
COc1cc(C)c(S(=O)(=O)N2CCCCC2COc2ccnc(N(C)CCN3CCC(Oc4ccncc4)CC3)n2)c(C)c1 (stereo not shown) [H_CC-049, [4-[[1-[(4-methoxy-2,6-dimethyl-phenyl)sulfonyl]-piperidin-2-yl]-methoxy]-pyrimidin-2-yl]-methyl-[2-(4-pyridin-4-yloxy-piperidin-1-yl)-ethyl]amine]	94%
COc1cc(C)c(S(=O)(=O)N2CCCCC2COc2ccnc(N3CCCN(Cc4ccccn4)CC3)n2)c(C)c1 (stereo not shown) [H_CC-042, 1-[4-[[1-[(4-methoxy-2,6-dimethyl-phenyl)sulfonyl]-piperidin-2-yl]-methoxy]-pyrimidin-2-yl]-4-(pyridin-2-yl-methyl)-[1,4]diazepan]	61%
COc1cc(C)c(S(=O)(=O)N2CC(Oc3nccc(N4CCN(CCCN(C)C)CC4)n3)C2)c(C)c1 [G_CC-127, 3-[4-[2-[1-[(4-methoxy-2,6-dimethyl-phenyl)sulfonyl]-azetidin-3-yl]oxy-pyrimidin-4-yl]-piperazin-1-yl]-propyl-dimethyl-amine]	54%
